Reference: US9757375B2, “Compounds that inhibit human DNA ligases and methods of treating cancer” (University of Maryland, Baltimore, priority 2007, dated 2017)

How the values were obtained:
[1] = target: T1, hLigIIIβ (Homo sapiens, UniProt P49916); experiment: Radioactive gel-based DNA ligation assay; type: biochemical; conditions: grades ±, Ø (key not given)
T1 sequence (P49916 1-862 isoform P49916-4): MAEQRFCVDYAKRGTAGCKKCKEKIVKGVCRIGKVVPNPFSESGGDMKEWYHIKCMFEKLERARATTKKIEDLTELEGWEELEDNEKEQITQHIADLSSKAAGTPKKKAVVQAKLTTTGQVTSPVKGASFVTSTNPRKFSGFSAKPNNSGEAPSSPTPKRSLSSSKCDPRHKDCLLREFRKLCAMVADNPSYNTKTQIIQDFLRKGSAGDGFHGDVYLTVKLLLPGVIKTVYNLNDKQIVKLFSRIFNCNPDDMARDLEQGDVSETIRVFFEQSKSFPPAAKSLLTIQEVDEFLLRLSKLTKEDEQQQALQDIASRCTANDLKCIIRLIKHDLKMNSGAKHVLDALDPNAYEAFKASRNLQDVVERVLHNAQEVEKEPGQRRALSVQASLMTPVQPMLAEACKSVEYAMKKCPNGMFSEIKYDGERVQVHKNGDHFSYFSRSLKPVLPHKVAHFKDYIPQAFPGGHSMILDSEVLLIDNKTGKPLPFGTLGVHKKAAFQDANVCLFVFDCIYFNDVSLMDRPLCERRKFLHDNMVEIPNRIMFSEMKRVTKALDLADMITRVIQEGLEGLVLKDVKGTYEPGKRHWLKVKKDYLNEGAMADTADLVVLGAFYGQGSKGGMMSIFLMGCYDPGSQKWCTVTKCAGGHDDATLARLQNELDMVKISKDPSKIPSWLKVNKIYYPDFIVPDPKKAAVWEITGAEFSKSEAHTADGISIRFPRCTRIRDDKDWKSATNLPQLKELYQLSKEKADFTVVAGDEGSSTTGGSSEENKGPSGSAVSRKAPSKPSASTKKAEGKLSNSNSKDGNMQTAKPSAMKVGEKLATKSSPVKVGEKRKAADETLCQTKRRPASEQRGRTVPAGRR

[2] = target: hLigIV/XRCC4 (Homo sapiens, UniProt P49917); experiment: Radioactive gel-based DNA ligation assay; type: biochemical; parameters: concentration or dose not given beside the values
hLigIV/XRCC4, sequence (P49917 whole entry): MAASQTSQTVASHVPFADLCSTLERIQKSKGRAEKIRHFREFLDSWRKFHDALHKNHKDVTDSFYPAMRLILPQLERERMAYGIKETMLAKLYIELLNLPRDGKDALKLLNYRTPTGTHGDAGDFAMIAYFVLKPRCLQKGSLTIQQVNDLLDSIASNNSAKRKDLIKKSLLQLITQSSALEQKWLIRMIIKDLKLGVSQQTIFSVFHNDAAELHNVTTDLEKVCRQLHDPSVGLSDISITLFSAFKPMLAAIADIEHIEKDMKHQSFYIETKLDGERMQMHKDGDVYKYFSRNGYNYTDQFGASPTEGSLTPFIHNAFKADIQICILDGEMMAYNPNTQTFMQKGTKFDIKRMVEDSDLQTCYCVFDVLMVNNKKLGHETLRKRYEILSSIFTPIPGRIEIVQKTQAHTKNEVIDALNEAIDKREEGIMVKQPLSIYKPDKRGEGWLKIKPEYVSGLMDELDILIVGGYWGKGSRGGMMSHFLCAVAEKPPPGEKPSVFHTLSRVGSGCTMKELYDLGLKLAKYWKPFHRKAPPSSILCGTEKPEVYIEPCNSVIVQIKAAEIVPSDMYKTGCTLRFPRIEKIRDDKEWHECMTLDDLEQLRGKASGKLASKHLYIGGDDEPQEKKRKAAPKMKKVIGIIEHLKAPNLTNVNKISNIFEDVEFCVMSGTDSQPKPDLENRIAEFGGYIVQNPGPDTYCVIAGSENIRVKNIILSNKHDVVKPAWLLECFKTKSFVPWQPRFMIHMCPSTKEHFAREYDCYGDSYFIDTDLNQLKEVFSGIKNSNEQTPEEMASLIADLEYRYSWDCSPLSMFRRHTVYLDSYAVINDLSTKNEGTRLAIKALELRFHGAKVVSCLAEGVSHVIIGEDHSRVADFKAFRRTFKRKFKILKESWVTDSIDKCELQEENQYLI
hLigIV/XRCC4, sequence (Q13426 whole entry partner): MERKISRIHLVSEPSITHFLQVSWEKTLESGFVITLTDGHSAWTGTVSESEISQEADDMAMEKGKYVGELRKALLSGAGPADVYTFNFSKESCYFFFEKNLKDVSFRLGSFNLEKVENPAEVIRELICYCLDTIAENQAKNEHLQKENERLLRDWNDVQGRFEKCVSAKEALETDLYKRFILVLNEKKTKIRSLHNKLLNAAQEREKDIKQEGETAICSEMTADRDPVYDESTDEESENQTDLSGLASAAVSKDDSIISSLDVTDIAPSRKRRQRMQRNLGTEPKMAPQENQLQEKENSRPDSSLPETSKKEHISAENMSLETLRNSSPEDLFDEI

[3] = test system: Human DNA ligases I, III and IV and T4 DNA ligase; experiment: Step 1 of the ligation reaction: ligase-AMP complex formation with [α32P] ATP; type: biochemical; conditions: for inhibition of the first step of the ligation reaction (ligase-AMP formation): 100 μM, FIG. 3A
Procedure: Human DNA ligases I, III and IV and T4 DNA ligase were incubated with [α^32P] ATP in the absence or presence of compounds 67, 82 and 189 (100 μM). After separation by SDS-PAGE, the labeled ligase-AMP complex was detected by phosphorimaging.

[4] = test system: MCF7 cells; experiment: Colony forming (survival) assay; type: cell-based, human
Procedure: For survival assays, cells were plated in 6 well plates and grown either in the absence or presence of ligase inhibitors. Where indicated, either MMS (0-50 μM) was added to the medium or the cells were irradiated in a Cs-137 irradiator (0-2.5 Gy). After two weeks, colonies were stained with crystal violet (Sigma) and then counted.
To confirm that the DNA ligase inhibitors directly kill cells and potentiate cell killing by DNA damaging agents, we performed colony forming assays.
Different concentrations of Compound 184 were added to asynchronous subconfluent populations of HCT116, MCF7 and MCF10A cells. Colonies were counted after two weeks. (FIG. 6A).
Different concentrations of Compound 67 were added to asynchronous subconfluent populations of HCT116, MCF7 and MCF10A cells. After 1 hour, cultures were irradiated with 2 gray of ionizing radiation. Different concentrations of Compound 67 were added to asynchronous subconfluent populations of HCT116 and MCF10A cells in the absence or presence of MMS (50 μM). Colonies were counted after two weeks. (FIG. 6D).

[5] = test system: MCF10A, MCF7, HCT116, and HeLa cells; experiment: Cell viability after 6 days on cell panel (FIG. 8); type: cell-based, human; conditions: FIG. 8, 6 days viability; MCF7 colonies, cell cycle
Procedure: FIG. 8. […] A, MCF10A (▪), MCF7 (♦), HCT116 (▴), and HeLa (upsidedown triangle) cells were plated in the absence or presence of L82 (left), L67 (middle), and L189 (right). After 6 days, cell viability was measured and is expressed as a percentage of the value obtained with untreated cells. B, MCF7 cells were plated out in the absence or presence of L82 (top) and L67 (bottom) at the indicated concentrations. After 2 weeks, colonies were stained with crystal violet. C, after serum starvation for 4 days, MCF 7 cells were returned to serum-containing media either without (▪) or with 50 μmol/L of L82 (●). The cell cycle distribution at various time intervals was determined by fluorescence-activated cell sorting. D, asynchronous populations of MCF cells were either untreated (top) or treated with L82 at 10 μmol/L (middle) and 50 μmol/L (bottom). After 3 days, tubulin and DNA were visualized by fluorescence microscopy (bars, […]).

[6] = test system: Human DNA ligases I, III and IV and T4 DNA ligase; experiment: Step 2 of the ligation reaction: DNA-AMP (DNA-adenylate) formation on non-ligatable nick; type: biochemical
Procedure: To analyze step 2 of the ligation reaction, labeled ligase-AMP intermediates (10 pmol (22)) were incubated overnight at 25° C. with an unlabeled nonligatable version (dideoxy residue at the 3′-terminus of the nick) of the DNA oligonucleotide substrate (10 pmol), either in the presence or absence of the ligase inhibitors (100 μmol/L).
Since the final two steps of the ligation reaction involve interactions with DNA, we examined the effects of the ligase inhibitors on the second (FIG. 3B) (The labeled ligase-adenylate form of human DNA ligases I, III and IV and T4 DNA ligase were incubated with a linear DNA substrate containing a single non-ligatable nick in the absence or presence of compounds 67, 82 and 189 (100 μM). After separation by denaturing gel electrophoresis, the labeled DNA-AMP complex was detected by phosphorimaging (26)) and third steps (FIG. 3C) of the ligation reaction using established assays (25,26) (Non-adenylated human DNA ligases I, III and IV and T4 DNA ligase were incubated with labeled DNA-AMP in the absence or presence of compounds 67, 82 and 189 (100 μM). After separation by denaturing gel electrophoresis, labeled ligated DNA was detected by phosphorimaging (25)).

Compound | % activity Inhibition hLigIII gel [1] | % activity Inhibition hLigIV gel [2] [%] | inhibition of the first step of the ligation reaction (ligase-AMP formation) [3] | also measured
C/C(O)=C1/C(=O)N(c2nc3ccccc3s2)N=C1c1ccccc1 [Compound 43] | Ø |  |  | 
O=C(O)CSc1cc(Cl)c2nonc2c1[N+](=O)[O-] [Compound 64] |  | 66 |  | Mechanism: ligation step inhibited (1st step) ([3]; Table 5A): 1st step
Cc1c(Br)cc(NCC(=O)N/N=C\c2cc([N+](=O)[O-])ccc2O)cc1Br [Compound 67] |  |  | did not inhibit | potentiation of killing by ionizing radiation ([4]; MCF7, 2 gray, FIG. 6D): potentiates; potentiation of killing by MMS ([4]; MCF7, MMS, FIG. 6D): potentiates
O=c1[nH]ncc(N/N=C\c2ccc(O)c([N+](=O)[O-])c2)c1Cl [Compound 82] |  |  | did not inhibit | effect on cell viability / growth, in words [5]: cytostatic effect
O=C(Cn1cnc([N+](=O)[O-])n1)N/N=C/c1ccc(O)cc1O [Compound 151] | Ø |  |  | 
CS(=O)(=O)NNC(=O)C(=O)NNc1ccccc1 [Compound 184] | Ø |  |  | cell killing (colony formation) ([4]; MCF7, compound alone, compared with MCF10A, FIG. 6A): more effective at killing
Nc1nc(S)nc(O)c1/N=C/c1ccccc1 [Compound 189] |  | 80 | did not inhibit | inhibition of step 2 of the ligation reaction ([6]; 100 μM, FIG. 3B): inhibits step 2; Mechanism: ligation step inhibited (2nd step) ([6]; Table 5A): 2nd
COc1ccc(-c2cnc3c(O)nc(O)nc3n2)cc1 [Compound 190] | Ø |  |  | 
Cc1oc(C(=O)O)cc1CSCc1cc(C(=O)O)c(C)o1 [Compound 197] |  | 100 |  | 
